The conditions of series [1]: rat, in vivo, ip.
Description: (§1) In particular, male Sprague-Dawley (SD) rats (300 g average body weight, 3 animals per group) were injected IP with DFO (250, 500, or 1000 mg/kg body weight). For comparison, Zn-DFO solution in freshly prepared saline was injected IP (250, 500, or 1000 mg/kg body weight, which are equivalent to 883, 442, or 221 mg DFO/kg body weight, respectively).
(§2) The behavior of the rats was monitored for 90 min following the injection.
Series [2] concerns H9C2 cardiomyocytes. Briefly: Penetration of cellular membranes in tissue culture model. The settings on record: data not shown. It counts as in vitro ADME. From the text:
It is postulated that some of the useful effects exerted by DFO in inhibiting ROS formation are achieved through its actions as a chelating agent (chelant, chelator, or sequestering agent), capable of forming soluble complexes, i.e., chelates, with certain metal ions and consequently inactivating said metal ions such that they cannot normally react with other elements or ions. Such chelates often have chemical and biological properties that are markedly different from those of either the chelator or metal ion, alone. For example, whereas DFO is a molecule having a noodle-like structure that can sparingly infiltrate into cells, metal-chelates formed by said molecule, e.g., the zinc-, gallium- or iron-chelates, assume a globular structure capable of infiltrating into cells.

The subject of series [3] is MOG35-55-induced EAE in C57BL/6 mice. Description: Experimental Autoimmune Encephalomyelitis (EAE), model for multiple sclerosis. It counts as in vivo. On the procedure:
In this study, the therapeutic effect of metal-DFO complex on multiple sclerosis (MS) is tested, using the Experimental Autoimmune Encephalomyelitis (EAE) in mice.
EAE is induced in 8-week-old female C57BL/6 mice by subcutaneous (SC) injection of 125 μg of myelin oligodendrocyte glycoprotein 35-55 peptide (MOG35-55) emulsified in complete Freund's adjuvant (CFA) containing 5 mg/ml heat-killed Mycobacterium tuberculosis into the left para-lumbar region. Immediately thereafter, and again at 48 h, the mice are inoculated intraperitoneal (IP) with 0.5 ml of pertussis toxin (400 ng). Seven days later, the mice are further challenged with an additional injection of MOG35-55 peptide in CFA injected into the right para-lumbar region. Mice are treated with Zn-DFO or Ga-DFO daily as IP injections, 2 mg/kg and 6 mg/kg.
The severity of the disease is assessed using the scale shown in Table 2 (Bittner et al., 2014).

The subject of series [4] is MPTP model in C57BL/6 mice. Briefly: MPTP mouse model of Parkinson's disease. It counts as in vivo. The conditions noted are these: 2 mg/kg daily IP. On the procedure: In this study, the therapeutic effect of metal-DFO complex on Parkinson's disease is tested, using the 1-methyl-4-phenyl-1,2,3,6-tetrahydropyridine (MPTP) model in mice.
Parkinson's disease is induced in 10 weeks old male C57BL/6 mice by four continuous IP injections of 20 mg/kg of MPTP, every 2 hours and during 8 hours, for 5 days (Jackson-Lewis and Przedborski, 2007). The animals are treated with Zn-DFO or Ga-DFO by daily IP injections, 2 mg/kg and 6 mg/kg, 30 min prior to the first exposure to MPTP. On day 8 the animals are euthanized. Immediately after the euthanasia, the striata are dissected out to perform biochemical and histological assessment of the damage to dopaminergic innervation.

For series [5] the following is noted: rat, in vivo, ip. The source holds these as a separate data set.
Description: (§3) In this study, the ability of the Zn-DFO complex to infiltrate into the brain was examined. Rats were injected intraperitoneally (IP) with increasing amounts of DFO alone or Zn-DFO complex, and the concentration of DFO was measured in their brains, thus monitoring their infiltrability.
as §1
(§4) The behavior of the rats was monitored for 90 min following the injection. Then, the animals were euthanized using an injection of ketamine-xylazine, and their hearts, livers, left kidneys, and brains were excised and weighted. Brain samples (300 mg tissue) were homogenized in 3 ml Lysis buffer. Tissue homogenates were incubated at 110° C. for 5 min and centrifuged for 5 min at 14,500 relative centrifugal force (RCF). An equal volume of 40% trichloroacetic acid (TCA) solution was added, forming a solution containing 20% TCA, which was vortexed and centrifuged again. The supernatants were transferred into cuvettes, and DFO concentration was spectrophotometrically measured, after addition of 10 mM of ferric iron solution (as a weak complex of iron, ferric-nitrilo-tri-acetate, at pH=7.4), and scanning the range of λ=380-580 nm. The final concentration was calculated according to the Beer-Lambert law, using εDFO=2460 M^−1cm^−1; the total amount of DFO per gram tissue and per whole brain were calculated.
In series [6] the test system is streptozotocin (STZ)-induced model in C57BL/6 mice. Briefly: Streptozotocin-induced model of Alzheimer disease. The class given is in vivo. The settings on record: IP, Zn-DFO/Ga-DFO 2 and 6 mg/kg daily, Eu-DFO 4 mg/kg. Here is the method:
In this study, the therapeutic effect of metal-DFO complex on Alzheimer disease is tested, using the streptozotocin (STZ)-induced model in mice.
The disease is induced in 10 weeks old male C57BL/6 mice. The animals are placed into a stereotaxic frame for mice with nose and ear bars. STZ (3 mg/kg) or citrate buffer (for the control group) is injected bilaterally into the lateral ventricles at the following coordinates: AP—0.5 mm; ML ±1.1 mm; DV—2.8 mm relative to the bregma in a total volume of 1.5 μl to hemisphere. The injections are repeated 2 days after the first STZ injection (1.5 mg/kg). In order to confirm that the stereotaxic coordinates used throughout the study are suitable for STZ injection into lateral ventricles, FITC-labeled latex microspheres are injected into lateral ventricles and the presence of fluorescence in the surrounding brain tissue is examined 24 h after injection. Mice are treated with Zn-DFO or Ga-DFO daily, by IP injections of 2 mg/kg and 6 mg/kg, and with Eu-DFO as IP injection, 4 mg/kg. During 21 days of the experiment the mice undergo maze tests and novel object recognition (NOR) tests every 7 days. Clinical signs including general body condition and dehydration are monitored daily after the surgery. Every 7 days a representative number of mice is taken from each group and euthanized for Alzheimer's disease markers (amyloid-β protein, neurofilament expression, phosphorylation of Tau protein, synapsin expression) biochemical and histochemical evaluation (Ravelli et al., 2016).

For series [7], the system named is contusion spinal cord injury model in C57BL/6 mice. Description: Contusion spinal cord injury model. It counts as in vivo. The conditions noted are these: 3 mg/kg IP. Here is the method: In this study, the therapeutic effect of metal-DFO complex on spinal cord injury was tested, using a contusion spinal cord injury model in C57BL/6 mice.
A contusion spinal cord injury model was employed using Infinite Horizon spinal cord impactor. The injury was performed at force setting of 70 kilodyne, for 100 ms (milisecond) on exposed T12 vertebra of the mouse (8 weeks old male), anesthetized with a ketamine-xylazine mixture (85:15), and immobilized. Immediately before the impact, the mice were injected with buprenorphine (0.1 mg/ml/kg body weight) as an analgesic.
Twenty one mice, after contusion, were divided into three groups (n=7), according to their treatment as following (Basso et al., 2006): Group 1—control untreated; Group 2—treated with saline (IP injections of 100 μl on Days 1, 2, 3, 4, 6, 8, 10, 12, 14, 17, 20, 23, 27, 31, 35, 39, and 42); Group 3—treated with Zn-DFO complex, 3 mg/kg body weight in saline (IP injections of 100 μl according to the same regimen as Group 2). Both treated groups (saline and Zn-DFO complex) received the first treatment 10 min following the Impactor-induced trauma.
The post-traumatic recovery of mice locomotion with or without treatment was assessed on a daily basis for the next 43 days, using open field Basso mouse scale (BMS) score as following: 0—no ankle movement; 1—slight ankle movement; 2—extensive ankle movement; 3—plantar placing of the paw with or without weight support, or occasional, frequent or consistent dorsal stepping but no plantar stepping; 4—occasional plantar stepping; 5—frequent or consistent plantar stepping, no coordination, or frequent or consistent plantar stepping, some coordination, paws rotated at initial contact and lift off (R/R); 6—frequent or consistent plantar stepping, some coordination, paws parallel at initial contact (P/R, P/P), or frequent or consistent plantar stepping, mostly coordinated, paws rotated at initial contact and lift off (R/R); 7—frequent or consistent plantar stepping, mostly coordinated, paws parallel at initial contact and rotated at lift off (P/R), or frequent or consistent plantar stepping, mostly coordinated, paws parallel at initial contact and lift off (P/P), and severe trunk instability; 8—frequent or consistent plantar stepping, mostly coordinated, paws parallel at initial contact and lift off (P/P), and mild trunk instability, or frequent or consistent plantar stepping, mostly coordinated, paws parallel at initial contact and lift off (P/P), and normal trunk stability and tail down or up & down; and 9—frequent or consistent plantar stepping, mostly coordinated, paws parallel at initial contact and lift off (P/P), and normal trunk stability and tail always up (P—parallel; R—rotated). The values were normalized considering the basal score on Day 0 as 100%.
On Day 43, the animals were euthanized, and their spinal cords were excised and stored in paraformaldehyde (PFA) 4% for histological analysis. Epon blocks were prepared, and the histological analysis was performed after staining with methylene blue.

A short description of series [8]: Behavior of rats monitored after IP injection. The settings on record: monitored for 90 min.
Description: as §1, §2
The conditions of series [9]: complex with Fe(III); cited from earlier work.
For series [10] the following is noted: complex with Zn(II); cited from earlier work.
The conditions of series [11]: complex with Ga(III); cited from earlier work.
Series [12] in a line: Blood-Brain Barrier (BBB) penetration: DFO concentration in rat brain after IP injection. The settings on record: for DFO (mg/g organ) / DFO (mg/whole organ): rat brain, 90 min after IP injection.
Description: as §3, §1, §4
For series [13] the following is noted: complex with Cu(II); cited from earlier work.

Read-outs that look alike come from different tables or passages of the source.

Zinc-desferrioxamine B [Zn-DFO]: the “changes in rats' behavior” value in series [1] (250 mg/kg) is recorded as “no changes in the rats' behavior could be identified”. The “changes in rats' behavior” value in [1] (500 mg/kg) was “no changes in the rats' behavior could be identified”. The “changes in rats' behavior” value in [1] (1000 mg/kg) is “passive and apathetic”. The “ability to infiltrate into the cells relative to DFO alone” value in series [2] is on record as “more than threefold higher”. For the same molecule, the “onset of the disease” value in [3] (2 mg/kg daily IP) turned out to be 14 days. The “onset of the disease” value in series [3] (6 mg/kg daily IP) fell in the range of 15 to 16 days. Further, in series [3] (6 mg/kg daily IP, Day 19, Table 2 scale), the peak clinical score entry is “less than 3”. Moreover, the “number of TH-positive neurons within the substantia nigra (% of control)” value in series [4] is reported as 65%. Also, the “infiltrability into the brain relative to DFO alone” value in series [5] is “at least 8.6 fold”. Besides, in series [5] (250 mg/kg), the “DFO (mg/g organ)” value turned out to be 0.017 ± 0.002 mg/g organ, the “DFO (mg/whole organ)” value worked out at 0.032 ± 0.004 mg/whole organ and the “DFO infiltrated the brain (%)” value was 0.014%. Also, in [5] (500 mg/kg), the “DFO (mg/g organ)” value amounted to 0.031 ± 0.001 mg/g organ, the “DFO (mg/whole organ)” value turned out to be 0.054 ± 0.002 mg/whole organ and the “DFO infiltrated the brain (%)” value was 0.012%. Also, in [5] (1000 mg/kg), the “DFO (mg/g organ)” value amounted to 0.072 ± 0.011 mg/g organ, the “DFO (mg/whole organ)” value was found to be 0.133 ± 0.010 mg/whole organ and the “DFO infiltrated the brain (%)” value came to 0.014%. In addition, in series [6], the “diminishing expression of synapsin” value is “attenuate this process dose-dependently”; the “expression of Aβ protein and phosphorylation of Tau protein in the hippocampus” value (“expression … in the hippocampus” below) was “inhibited”; the “impairment of maze and NOR test outcomes” value is on record as “(largely) prevent this impairment in a dose-dependent manner”. For the same molecule, in series [7] (Day 13), the BMS score was 5.1 and the “normalized BMS score (% of initial scoring, Day 0)” value was found to be 347%. Further, in series [7] (Day 29), the “normalized BMS score (% of initial scoring), plateau” value is 389%. For the same molecule, the “BMS score, plateau” value in series [7] (Day 29, scale 0-9) came out at 5.7. Also, in series [7] (spinal cord histology, Day 43), the “density of axons and axonal myelin sheath in white matter” value is “restoring the density of axons and axonal myelin sheath”; the “white matter area (fraction of the total area)” value was 50.8±3.3%. In addition, the body weight gain result in [7] (vs non-treated or saline-treated animals) is listed as “gained weight better than the non-treated or saline-treated animals”.

For `CC(=O)N([O-])CCCCCNC(=O)CCC(=O)N([O-])CCCCCNC(=O)CCC(=O)N([O-])CCCCCN.[Ga+3]` [Ga-DFO, gallium-desferrioxamine B], the “onset of the disease” value in [3] (2 mg/kg daily IP) came out at 14 days. Moreover, in [3] (6 mg/kg daily IP), the “onset of the disease” value came to 15 days. The “number of TH-positive neurons within the substantia nigra (% of control)” value in [4] amounted to 65%. Also, in series [6], the “diminishing expression of synapsin” value is recorded as “attenuate this process dose-dependently”; the “expression … in the hippocampus” value is “inhibited”; the “impairment of maze and NOR test outcomes” value is on record as “(largely) prevent this impairment in a dose-dependent manner”.

For `CC(=O)N(O)CCCCCNC(=O)CCC(=O)N(O)CCCCCNC(=O)CCC(=O)N(O)CCCCCN.[Eu+3]` [Eu-DFO], in series [6], the “diminishing expression of synapsin” value is recorded as “Only a minute effect”; the “expression … in the hippocampus” value is on record as “slightly better than Ga-DFO”.

Consider `CC(=O)N(O)CCCCCNC(=O)CCC(=O)N(O)CCCCCNC(=O)CCC(=O)N(O)CCCCCN` [DFO, N′-[5-(Acetyl-hydroxy-amino)pentyl]-N-[5-[3-(5-aminopentyl-hydroxy-carbamoyl)propanoylamino]pentyl]-N-hydroxy-butane diamide], for which the “changes in rats' behavior” value in series [8] (IP 250 mg/kg), in [8] (IP 500 mg/kg) and in series [8] (IP 1000 mg/kg) was “no changes in rats' behavior was observed” each time. The “relative stability constant of DFO complex” value was 10^31 in series [9], 10^11 in series [10], 10^28 in series [11] and 10^14 in [13]. In addition, the results for the “DFO (mg/g organ)” value in series [12] (250 mg/kg), in series [12] (500 mg/kg) and in series [12] (1000 mg/kg) were <0.005 mg/g organ, <0.005 mg/g organ and 0.008 ± 0.004 mg/g organ, respectively. Moreover, the “DFO (mg/whole organ)” value was <0.005 mg/whole organ in series [12] (250 mg/kg), <0.005 mg/whole organ in [12] (500 mg/kg) and 0.019 ± 0.008 mg/whole organ in series [12] (1000 mg/kg). Moreover, the “DFO infiltrated the brain (%)” value is <0.0015% in series [12] (rat, IP, 250 mg/kg); <0.0015% in series [12] (rat, IP, 500 mg/kg); 0.002% in [12] (rat, IP, 1000 mg/kg). Further, the “fraction of DFO that had infiltrated into the brain” value in [12] (rat, IP, over the 3 doses (250, 500 and 1000 mg/kg)) is ≤ 0.002%.

Source of the values: patent US11033630B2, “Method and pharmaceutical composition for treatment of neurodegeneration” (priority 2016, dated 2021).
